# Biological target: T1, human TLR9 (Homo sapiens, UniProt Q9NR96)
# T1 construct: host or cells: HEK293 (HEK-Blue hTLR9)
# T1 sequence (Q9NR96 26-1032): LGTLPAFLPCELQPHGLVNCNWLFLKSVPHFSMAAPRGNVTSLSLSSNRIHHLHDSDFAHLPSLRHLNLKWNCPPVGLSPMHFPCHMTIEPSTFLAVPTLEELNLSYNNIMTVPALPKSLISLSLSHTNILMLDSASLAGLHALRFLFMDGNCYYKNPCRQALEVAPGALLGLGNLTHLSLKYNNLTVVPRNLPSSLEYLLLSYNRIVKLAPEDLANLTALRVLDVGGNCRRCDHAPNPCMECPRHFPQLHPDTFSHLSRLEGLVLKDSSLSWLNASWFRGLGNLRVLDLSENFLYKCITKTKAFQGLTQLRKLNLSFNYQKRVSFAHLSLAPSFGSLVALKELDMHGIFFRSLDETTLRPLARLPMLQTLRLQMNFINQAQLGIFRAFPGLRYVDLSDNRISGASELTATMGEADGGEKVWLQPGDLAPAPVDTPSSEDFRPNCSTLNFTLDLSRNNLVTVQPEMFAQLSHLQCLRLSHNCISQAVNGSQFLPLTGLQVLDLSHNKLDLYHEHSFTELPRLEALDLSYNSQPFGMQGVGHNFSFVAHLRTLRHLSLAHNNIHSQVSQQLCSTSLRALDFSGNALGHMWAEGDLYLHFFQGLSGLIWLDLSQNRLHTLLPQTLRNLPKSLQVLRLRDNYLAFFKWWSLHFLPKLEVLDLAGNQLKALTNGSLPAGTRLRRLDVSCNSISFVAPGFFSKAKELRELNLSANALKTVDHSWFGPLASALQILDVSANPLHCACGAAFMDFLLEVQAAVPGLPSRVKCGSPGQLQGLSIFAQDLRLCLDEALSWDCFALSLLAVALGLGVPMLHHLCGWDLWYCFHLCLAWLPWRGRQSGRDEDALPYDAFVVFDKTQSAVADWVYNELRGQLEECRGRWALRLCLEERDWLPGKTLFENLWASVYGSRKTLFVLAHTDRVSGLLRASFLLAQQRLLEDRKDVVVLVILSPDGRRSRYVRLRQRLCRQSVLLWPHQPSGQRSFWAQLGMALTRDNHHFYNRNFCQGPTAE
# Experiment: HEK293-Blue-hTLR-9 cells assay
# Format: cell-based
# Conditions: HEK293-Blue-hTLR9 cells, ODN2006 stimulation, 20 hrs, SEAP reporter; read-out: HEK/hTLR9 IC50
row,IC50,Compound
1,94 nM,"C[C@@H]1CN(c2ccc(C#N)c3ncccc23)C[C@@H]2CN(Cc3cncc(N4CCNCC4)c3)CCN21 [Example 57, 5-[(4R,9aS)-4-methyl-8-[(5-piperazin-1-yl-3-pyridyl)methyl]-3,4,6,7,9,9a-hexahydro-1H-pyrazino[1,2-a]pyrazin-2-yl]quinoline-8-carbonitrile]"
2,51 nM,"C[C@@H]1CN(c2cccc(CCN3CCN4[C@@H](C3)CN(c3ccc(C#N)c5ncccc35)C[C@H]4C)n2)CCN1 [Example 58, 5-[(4R,9aS)-4-methyl-8-[2-[6-[(3R)-3-methylpiperazin-1-yl]-2-pyridyl]ethyl]-3,4,6,7,9,9a-hexahydro-JH-pyrazino[1,2-a]pyrazin-2-yl]quinoline-8-carbonitrile]"
3,48 nM,"C[C@@H]1CN(c2ccc(C#N)c3ncccc23)C[C@@H]2CN(CCc3ccc(N4CC5(CNCCO5)C4)nc3)CCN21 [Example 59, 5-[(4R,9aS)-4-methyl-8-[2-[6-(5-oxa-2,8-diazaspiro[3.5]nonan-2-yl)-3-pyridyl]ethyl]-3,4,6,7,9,9a-hexahydro-1H-pyrazino[1,2-a]pyrazin-2-yl]quinoline-8-carbonitrile]"
4,53 nM,"Cc1nc(N2CCNCC2)ccc1CN1CCN2[C@@H](C1)CN(c1ccc(C#N)c3ncccc13)C[C@H]2C [Example 60, 5-[(4R,9aS)-4-methyl-8-[(2-methyl-6-piperazin-1-yl-3-pyridyl)methyl]-3,4,6,7,9,9a-hexahydro-1H-pyrazino[1,2-a]pyrazin-2-yl]quinoline-8-carbonitrile]"
5,64 nM,"[2H]c1ccc2c(N3C[C@@H]4CN(Cc5ccc6c(c5)CNCC6)CCN4[C@H](C)C3)ccc(C#N)c2n1 [Example 61, 5-[(4R,9aS)-4-methyl-8-(1,2,3,4-tetrahydroisoquinolin-7-ylmethyl)-3,4,6,7,9,9a-hexahydro-1H-pyrazino[1,2-a]pyrazin-2-yl]-2-deuterio-quinoline-8-carbonitrile]"
6,43 nM,"[2H]c1ccc2c(N3C[C@@H]4CN(CCc5ccc(N6C[C@@H](N)[C@H](OC)C6)nc5)CCN4[C@H](C)C3)ccc(C#N)c2n1 [Example 62, 5-[(4R,9aS)-8-[2-[6-[(3R,4R)-3-amino-4-methoxy-pyrrolidin-1-yl]-3-pyridyl]ethyl]-4-methyl-3,4,6,7,9,9a-hexahydro-1H-pyrazino[1,2-a]pyrazin-2-yl]-2-deuterio-quinoline-8-carbonitrile]"
7,32 nM,"[2H]c1ccc2c(N3C[C@@H]4CN(CCc5ccc(N6CC7(CN(C)C7)C6)nc5)CCN4[C@H](C)C3)ccc(C#N)c2n1 [Example 64, 5-[(4R,9aS)-4-methyl-8-[2-[6-(6-methyl-2,6-diazaspiro[3.3]heptan-2-yl)-3-pyridyl]ethyl]-3,4,6,7,9,9a-hexahydro-1H-pyrazino[1,2-a]pyrazin-2-yl]-2-deuterio-quinoline-8-carbonitrile]"
8,50 nM,"C[C@@H]1CN(c2ccc(C#N)c3ncccc23)C[C@@H]2CN(CCc3ccc(N4CC(C)(N)C4)nc3)CCN21 [Example 65, 5-[(4R,9aS)-8-[2-[6-(3-amino-3-methyl-azetidin-1-yl)-3-pyridyl]ethyl]-4-methyl-3,4,6,7,9,9a-hexahydro-1H-pyrazino[1,2-a]pyrazin-2-yl]quinoline-8-carbonitrile]"
9,116 nM,"CO[C@@H]1CN(c2ccc(CCN3CCN4[C@@H](C3)CN(c3ccc(C#N)n5ncc(F)c35)C[C@H]4C)cc2)C[C@H]1N [Example 66, 4-[(4R,9aS)-8-[2-[4-[(3R,4R)-3-amino-4-methoxy-pyrrolidin-1-yl]phenyl]ethyl]-4-methyl-3,4,6,7,9,9a-hexahydro-1H-pyrazino[1,2-a]pyrazin-2-yl]-3-fluoro-pyrazolo[1,5-a]pyridine-7-carbonitrile]"
10,83 nM,"CO[C@@H]1CN(c2ccc(CCN3CCN4[C@@H](C3)CN(c3ccc(C#N)n5ncc(F)c35)C[C@H]4C)cn2)C[C@H]1N [Example 67, 4-[(4R,9aS)-8-[2-[6-[(3R,4R)-3-amino-4-methoxy-pyrrolidin-1-yl]-3-pyridyl]ethyl]-4-methyl-3,4,6,7,9,9a-hexahydro-1H-pyrazino[1,2-a]pyrazin-2-yl]-3-fluoro-pyrazolo[1,5-a]pyridine-7-carbonitrile]"
